13 compounds from patent US8796328B2, “TRPV1 antagonists” (AbbVie Inc., priority 2012, dated 2014) can be followed below.

For assay [1], the target named is T1, human TRPV1 receptor (hTRPV1) (Homo sapiens (Human), UniProt Q8NER1). Put plainly: Acid activation assay (pH 5.0, FLIPR intracellular Ca2+). Conditions: 37.5 μM compound; percentage of the maximal pH 5.0-induced response remaining; read-out: hTRPV1 H+ (max % remain). It counts as cell-based. As to the method:
Dulbecco's modified Eagle's medium (DMEM) with 4.5 mg/mL D-glucose, fetal bovine serum, L-glutamine, and 2-morpholinoethanesulfonic acid (MES) were purchased from Sigma-Aldrich Co. (St. Louis, Mo.). Dulbecco's phosphate-buffered saline (DPBS) with Ca^2+, Mg^2+, and 1 mg/mL D-glucose (pH 7.4), Geneticin®, 0.25% trypsin-1 mM EDTA, and penicillin-streptomycin were purchased from Invitrogen Corp. (Carlsbad, Calif.). The FLIPR® Calcium 4 assay kit was purchased from Molecular Devices (Sunnyvale, Calif.).
(§1) The cDNAs for the human TRPV1 receptor (hTRPV1) were isolated by reverse transcriptase-polymerase chain reaction (RT-PCR) from human small intestine poly A+ RNA supplied by Clontech (Palo Alto, Calif.) using primers designed surrounding the initiation and termination codons identical to the published sequences (Hayes et al. Pain 2000, 88, 205-215). The resulting cDNA PCR products were subcloned into pCIneo mammalian expression vector (Promega) and fully sequenced using fluorescent dye-terminator reagents (Prism, Perkin-Elmer Applied Biosystems Division) and a Perkin-Elmer Applied Biosystems Model 373 DNA sequencer or Model 310 genetic analyzer. Expression plasmids encoding the hTRPV1 cDNA were transfected individually into 1321N1 human astrocytoma cells using Lipofectamine®. Forty-eight hours after transfection, the neomycin-resistant cells were selected with growth medium containing 800 μg/mL Geneticin (Gibco BRL). Surviving individual colonies were isolated and screened for TRPV1 receptor activity. Cells expressing recombinant homomeric TRPV1 receptors were maintained at 37° C. in DMEM containing 4 mM L-glutamine, 300 μg/mL G418 (Cal-biochem) and 10% fetal bovine serum under a humidified 5% CO2 atmosphere.
The functional activity of compounds at the TRPV1 receptor was determined by measurement of intracellular Ca^2+ levels ([Ca^2+]i) using the Fluorescence Imaging Plate Reader (FLIPR)^TETRA®. All compounds were tested over a 12-point one-half-log concentration range. Compound stocks, 10 mM, were prepared in DMSO, and diluted serially across a 384-well plate using a Bravo BenchCel workstation (Agilent Technologies, Santa Clara, Calif.).
On the day of the experiment growth medium was removed, and the no-wash FLIPR®Calcium-4 dye (λEX=470-495 nm, λEM=515-575 nm) was added to each well using the Multidrop® dispenser. Cells were incubated for 90-120 minutes in the dark at 25° C. Test compounds were dissolved in DMSO, and plates were prepared using an Agilent Bravo workstation (Agilent Technologies Inc., Santa Clara, Calif.). Compounds were added to the cells 3 minutes prior to the addition of a pH 5.0 solution. Reagents were delivered at a rate of 40 μL/sec, and the final assay volume was 80 μL. Acidic pH solutions were prepared by titration of DPBS/MES with 1 N HCl. The intensity of the fluorescence was captured and digitally transferred to an interfaced PC.

Assay [2] has as its target T1, human TRPV1 receptor (hTRPV1). Put plainly: Capsaicin activation assay (FLIPR intracellular Ca2+). The conditions noted are these: inhibition of capsaicin-induced intracellular Ca2+ increase; compounds added 3 minutes prior to capsaicin; read-out: hTRPV1 cap. IC50. Format: cell-based. As to the method: Dulbecco's modified Eagle medium (D-MEM) (with 4.5 mg/mL glucose) and fetal bovine serum were obtained from Hyclone Laboratories, Inc. (Logan, Utah). Dulbecco's phosphate-buffered saline (D-PBS) (with 1 mg/mL glucose and 3.6 mg/l Na pyruvate, without phenol red), L-glutamine, hygromycin B, and Lipofectamine® were obtained from Life Technologies (Grand Island, N.Y.). G418 sulfate was obtained from Calbiochem-Novabiochem Corp. (San Diego, Calif.). Capsaicin (8-methyl-N-vanillyl-6-nonenamide) was obtained from Sigma-Aldrich, Co. (St. Louis, Mo.). Fluo-4 AM (N-[4-[6-[(acetyloxy)methoxy]-2,7-difluoro-3-oxo-3H-xanthen-9-yl]-2-[2-[2-[bis[2-[(acetyloxy)methoxy]-2-oxyethyl]amino]-5-methylphenoxy]ethoxy]phenyl]-N-[2-[(acetyloxy)methoxy]-2-oxyethyl]-glycine, (acetyloxy)methyl ester) was purchased from Molecular Probes (Eugene, Oreg.).
as §1, with “D-MEM” for “DMEM”
The functional activity of compounds at the TRPV1 receptor was determined by measurement of intracellular Ca^2+ levels ([Ca^2]i) using the Fluorescence Imaging Plate Reader (FLIPR)^TETRA®. All compounds were tested over a 12-point one-third-log concentration range. Compound stocks, 10 mM, were prepared in DMSO, and diluted serially across a 384-well plate using a Bravo BenchCel workstation (Agilent Technologies, Santa Clara, Calif.). A stock concentration of capsaicin (10 mM) was made in DMSO, and diluted in D-PBS to a final concentration of 200 nM (4×). On the day prior to the experiment, recombinant HEK293 cells that stably express either human or rat TRPV1 (hTRPV1-3) were removed from tissue culture flasks and plated in growth medium into black-walled clear-bottom 384-well Biocoat™ poly-D-lysine assay plates (BD Biosciences, Bedford, Mass.) using a Multidrop® dispenser (ThermoScientific, Waltham, Mass.). On the day of the experiment, growth medium was removed, and the no-wash FLIPR® Calcium-4 dye (λEX=470-495 nm, λEM=515-575 nm; Molecular Devices, Sunnyvale, Calif.) was added to each well using the Multidrop® dispenser. Cells were incubated for 90-120 minutes in the dark at room temperature. Test compounds were added to the cells 3 minutes prior to the addition of 200 nM capsaicin (4×), and the final assay volume was 80 μL. Fluorescence readings were made at 1 to 5 second intervals over the course of the experimental run. The peak increase in relative fluorescence units (minus baseline) was calculated, and expressed as a percentage of the 50 nM capsaicin (control) response. Curve-fits of the data were solved using a four-parameter logistic Hill equation in GraphPad Prism® (GraphPad Software, Inc., San Diego, Calif.), and IC50 values (concentration of the test compounds that inhibits 50% of the intracellular Ca^2+ concentration increase induced by capasin) were calculated.

T1 sequence (Q8NER1 whole entry): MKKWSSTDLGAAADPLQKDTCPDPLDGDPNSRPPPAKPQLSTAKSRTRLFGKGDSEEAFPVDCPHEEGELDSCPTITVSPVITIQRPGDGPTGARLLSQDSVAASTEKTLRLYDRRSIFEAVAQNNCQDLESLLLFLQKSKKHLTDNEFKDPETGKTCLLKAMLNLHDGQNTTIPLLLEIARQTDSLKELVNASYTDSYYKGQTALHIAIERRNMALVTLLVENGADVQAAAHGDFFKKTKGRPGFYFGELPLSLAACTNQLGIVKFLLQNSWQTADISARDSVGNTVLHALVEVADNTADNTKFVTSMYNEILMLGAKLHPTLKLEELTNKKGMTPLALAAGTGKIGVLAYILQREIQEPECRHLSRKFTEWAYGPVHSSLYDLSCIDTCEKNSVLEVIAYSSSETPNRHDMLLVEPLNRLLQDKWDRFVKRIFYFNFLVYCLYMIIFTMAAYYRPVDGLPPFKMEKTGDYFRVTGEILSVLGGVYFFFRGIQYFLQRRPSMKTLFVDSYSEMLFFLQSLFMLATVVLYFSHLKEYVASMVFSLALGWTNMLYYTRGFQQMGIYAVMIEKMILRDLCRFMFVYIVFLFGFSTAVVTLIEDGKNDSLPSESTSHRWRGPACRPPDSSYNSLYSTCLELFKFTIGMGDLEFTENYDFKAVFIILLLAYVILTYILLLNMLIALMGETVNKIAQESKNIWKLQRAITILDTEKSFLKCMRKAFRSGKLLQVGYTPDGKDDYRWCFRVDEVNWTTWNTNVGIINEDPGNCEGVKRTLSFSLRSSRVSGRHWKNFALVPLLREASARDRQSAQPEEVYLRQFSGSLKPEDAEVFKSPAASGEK

As to `CS(=O)(=O)Nc1ccc(CNC(=O)N[C@@H]2CCc3cc(F)ccc32)cc1F` [Example 4, N-{2-fluoro-4-[({[(1R)-5-fluoro-2,3-dihydro-1H-inden-1-yl]carbamoyl}amino)methyl]phenyl}methanesulfonamide], in assay [1], the remaining activity at 37.5 µM came to 91%. The IC50 (as a rule, the concentration that gives 50% inhibition) in assay [2] is 16500 nM.
Consider `CS(=O)(=O)Nc1ccc(CNC(=O)N[C@@H]2CC(CF)(CF)Oc3c(F)cc(F)cc32)cc1F` [Example 16, N-{4-[({[(4R)-6,8-difluoro-2,2-bis(fluoromethyl)-3,4-dihydro-2H-chromen-4-yl]carbamoyl}amino)methyl]-2-fluorophenyl}methanesulfonamide], for which the remaining activity at 37.5 µM in assay [1] amounted to 79%. In assay [2], the IC50 stood at 22800 nM.
In the case of `CC1(C)C[C@@H](NC(=O)NCc2ccc(NS(C)(=O)=O)c(F)c2)c2ccc(C(F)(F)F)nc2O1` [Example 42, N-{4-[({[(4R)-2,2-dimethyl-7-(trifluoromethyl)-3,4-dihydro-2H-pyrano[2,3-b]pyridin-4-yl]carbamoyl}amino)methyl]-2-fluorophenyl}methanesulfonamide], the remaining activity at 37.5 µM in assay [1] stood at 82%. Besides, the IC50 in assay [2] was determined as 32800 nM.
For `CS(=O)(=O)Nc1ccc(CNC(=O)N[C@@H]2CC(CF)(CF)Oc3c(F)cccc32)cc1F` [Example 28, N-{2-fluoro-4-[({[(4R)-8-fluoro-2,2-bis(fluoromethyl)-3,4-dihydro-2H-chromen-4-yl]carbamoyl}amino)methyl]phenyl}methanesulfonamide] the same measures were 68% and 29500 nM.
Turning to `CC1(C)C[C@@H](NC(=O)NCc2ccc(NS(C)(=O)=O)c(F)c2)c2ccc(Cl)cc2O1` [Example 25, N-{4-[({[(4R)-7-chloro-2,2-dimethyl-3,4-dihydro-2H-chromen-4-yl]carbamoyl}amino)methyl]-2-fluorophenyl}methanesulfonamide], the remaining activity at 37.5 µM in assay [1] is 70%. Also, the IC50 in assay [2] amounted to 602 nM.
On to `CC1(C)C[C@@H](NC(=O)NCc2ccc(NS(C)(=O)=O)c(F)c2)c2ccc(F)c(F)c2O1` [Example 29, N-{4-[({[(4R)-7,8-difluoro-2,2-dimethyl-3,4-dihydro-2H-chromen-4-yl]carbamoyl}amino)methyl]-2-fluorophenyl}methanesulfonamide], for which, in assay [1], the remaining activity at 37.5 µM came out at 27%. In addition, the IC50 in assay [2] stood at 1150 nM.
Consider `CS(=O)(=O)Nc1ccc(CNC(=O)N[C@@H]2CC3(CCC3)Oc3ccc(F)cc32)cc1F` [Example 17, N-{2-fluoro-4-[({[(4R)-6-fluoro-3,4-dihydrospiro[chromene-2,1′-cyclobutan]-4-yl]carbamoyl}amino)methyl]phenyl}methanesulfonamide], for which the remaining activity at 37.5 µM in assay [1] worked out at 69%. Also, the concentration for half-maximal inhibition (IC50) in assay [2] amounted to 3030 nM.
For `C[C@@]1(CF)C[C@@H](NC(=O)NCc2ccc(NS(C)(=O)=O)c(F)c2)c2ccc(Cl)cc2O1` [Example 39, N-{4-[({[(2S,4R)-7-chloro-2-(fluoromethyl)-2-methyl-3,4-dihydro-2H-chromen-4-yl]carbamoyl}amino)methyl]-2-fluorophenyl}methanesulfonamide], the remaining activity at 37.5 µM in assay [1] came to 41%. In addition, the IC50 in assay [2] came to 615 nM.
For `C[C@]1(C(F)(F)F)C[C@@H](NC(=O)NCc2ccc(NS(C)(=O)=O)c(F)c2)c2ccccc2O1` [Example 36, N-{2-fluoro-4-[({[(2R,4R)-2-methyl-2-(trifluoromethyl)-3,4-dihydro-2H-chromen-4-yl]carbamoyl}amino)methyl]phenyl}methanesulfonamide], the remaining activity at 37.5 µM in assay [1] was determined as 58%. Further, the IC50 in assay [2] amounted to 587 nM.
Take `CCC1(CC)C[C@@H](NC(=O)NCc2ccc(NS(C)(=O)=O)c(F)c2)c2cccc(F)c2O1` [Example 13, N-{4-[({[(4R)-2,2-diethyl-8-fluoro-3,4-dihydro-2H-chromen-4-yl]carbamoyl}amino)methyl]-2-fluorophenyl}methanesulfonamide]: in assay [1], the remaining activity at 37.5 µM came to 27%. In addition, the IC50 in assay [2] turned out to be 418 nM.
`C[C@@]1(CF)C[C@@H](NC(=O)NCc2ccc(NS(C)(=O)=O)c(F)c2)c2ccc(C(F)(F)F)cc2O1` [Example 37, N-{2-fluoro-4-[({[(2S,4R)-2-(fluoromethyl)-2-methyl-7-(trifluoromethyl)-3,4-dihydro-2H-chromen-4-yl]carbamoyl}amino)methyl]phenyl}methanesulfonamide]: the remaining activity at 37.5 µM in assay [1] was determined as 64%. Moreover, the IC50 in assay [2] came to 256 nM.
As for `CS(=O)(=O)Nc1ccc(CNC(=O)N[C@@H]2CC(CF)(CF)Oc3cc(OC(F)(F)F)ccc32)cc1F` [Example 15, N-{4-[({[(4R)-2,2-bis(fluoromethyl)-7-(trifluoromethoxy)-3,4-dihydro-2H-chromen-4-yl]carbamoyl}amino)methyl]-2-fluorophenyl}methanesulfonamide], the remaining activity at 37.5 µM in assay [1] came to 85%. Moreover, the IC50 in assay [2] turned out to be 863 nM.
As to `CCC1(CC)C[C@@H](NC(=O)NCc2ccc(NS(C)(=O)=O)c(F)c2)c2ccc(OC(F)(F)F)cc2O1` [Example 19, N-{4-[({[(4R)-2,2-diethyl-7-(trifluoromethoxy)-3,4-dihydro-2H-chromen-4-yl]carbamoyl}amino)methyl]-2-fluorophenyl}methanesulfonamide], the remaining activity at 37.5 µM in assay [1] worked out at 82%. Also, the IC50 in assay [2] was found to be 466 nM.
